Like-named read-outs stand apart in the source and are kept apart here.
Legend:
[1] = system: MLKL phosphorylation in HT29-L23 human colorectal adenocarcinoma cells; assay: MLKL Phosphorylation High-Content Assay; assay type: cell-based; conditions: Homo sapiens
Procedure, shortened: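 Cells incubated six hours at 37° C., then phospho-MLKL (S358) immunostained overnight at 4° C. and imaged by high-content microscopy. Phosphorylation quantified as mean circ-ring average intensity ratio; IC50 and Ymax from 4-parameter logistic fits.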

[2] = biological target: T1, His-GST-TVMV-hRIPK1(1-324) (Homo sapiens, UniProt Q13546); assay: RIPK1 HTRF Binding Assay
T1 construct: The coding region of human RIPK1(1-324) flanked by NdeI site at 5′ end; made in house; host or cells: Spodoptera frugiperda (Sf9) insect cells, baculovirus
T1 sequence (Q13546 1-324): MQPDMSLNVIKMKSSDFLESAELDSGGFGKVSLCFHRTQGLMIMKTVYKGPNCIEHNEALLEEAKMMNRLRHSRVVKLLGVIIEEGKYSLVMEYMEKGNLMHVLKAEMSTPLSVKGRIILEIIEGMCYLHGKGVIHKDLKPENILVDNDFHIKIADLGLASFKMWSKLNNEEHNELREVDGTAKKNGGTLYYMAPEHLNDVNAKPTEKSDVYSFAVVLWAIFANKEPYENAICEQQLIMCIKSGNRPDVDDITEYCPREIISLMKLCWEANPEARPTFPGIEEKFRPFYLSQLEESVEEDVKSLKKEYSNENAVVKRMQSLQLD

[3] = x marks IC50 class <20 nM, read-out: pMLKL cell activity <20 nM
[4] = x marks IC50 class <20 nM, read-out: RIPK1 HTRF binding <20 nM
[5] = x marks IC50 class 20-200 nM, read-out: pMLKL cell activity 20-200 nM
[6] = x marks IC50 class >200 nM, read-out: pMLKL cell activity >200 nM
[7] = x marks IC50 class 20-200 nM, read-out: RIPK1 HTRF binding 20-200 nM

| SMILES | IC50 [2, 4] | IC50 [1, 5] | IC50 [2, 7] | other results |
| --- | --- | --- | --- | --- |
| COc1ncc(-c2ccn3nc(N)nc3c2)cc1C(=O)NCc1ccccc1Oc1ccccn1 [Example 109, 5-{2-amino-[1,2,4]triazolo[1,5-a]pyridin-7-yl}-2-methoxy-N-{[2-(pyridin-2-yloxy)phenyl]methyl}pyridine-3-carboxamide] | < 20 nM |  |  | IC50 [1, 3]: < 20 nM |
| COc1ncc(-c2ccn3nc(N)nc3c2)cc1C(=O)NCc1ccccc1OC(C)C1CCCC1 (centres unmarked) [Example 125, 5-{2-amino-[1,2,4]triazolo[1,5-a]pyridin-7-yl}-N-{[2-(1-cyclopentylethoxy)phenyl]methyl}-2-methoxypyridine-3-carboxamide] | < 20 nM | 20 to 200 nM |  |  |
| Cc1ncc(-c2ccn3nc(N)nc3c2)cc1C(=O)NCc1ccc(F)cc1OCC1CCCC1 [Example 18, 5-{2-Amino-[1,2,4]triazolo[1,5-a]pyridin-7-yl}-N-{[2-(cyclopentylmethoxy)-4-fluorophenyl]methyl}-2-methylpyridine-3-carboxamide] |  |  | 20 to 200 nM | IC50 [1, 6]: > 200 nM |
| CC(CCNC(=O)c1cc(-c2ccn3nc(N)nc3c2)cnc1N(C)C)c1ccccc1 (centres unmarked) [Example 64, 5-{2-Amino-[1,2,4]triazolo[1,5-a]pyridin-7-yl}-2-(dimethylamino)-N-(3-phenylbutyl)pyridine-3-carboxamide] |  | 20 to 200 nM | 20 to 200 nM |  |
| Cc1ncc(-c2ccn3nc(N)nc3c2)cc1C(=O)NCCc1cccc(OC(F)(F)F)c1 [Example 227, 5-{2-amino-[1,2,4]triazolo[1,5-a]pyridin-7-yl}-2-methyl-N-{2-[3-(trifluoromethoxy)phenyl]ethyl}pyridine-3-carboxamide] |  |  | 20 to 200 nM | IC50 [1, 6]: > 200 nM |
| CCc1ncc(-c2ccn3nc(N)nc3c2)cc1C(=O)N[C@H](C)c1cc(OC(F)(F)F)ccc1F [Example 320, (R)-5-(2-amino-[1,2,4]triazolo[1,5-a]pyridin-7-yl)-2-ethyl-N-(1-(2-fluoro-5-(trifluoromethoxy)phenyl)ethyl)nicotinamide] |  |  | 20 to 200 nM | IC50 [1, 3]: < 20 nM |
| Cc1nc(C)c(-c2ccn3nc(N)nc3c2)cc1C(=O)NCC(O)Cc1ccccc1 (centres unmarked) [Example 173] |  |  | 20 to 200 nM | IC50 [1, 6]: > 200 nM |
| COc1nc(C)c(-c2ccn3nc(N)nc3c2)cc1C(=O)NCc1ncccc1OC1CCCC1 [Example 213, 5-{2-amino-[1,2,4]triazolo[1,5-a]pyridin-7-yl}-N-{[3-(cyclopentyloxy)pyridin-2-yl]methyl}-2-methoxy-6-methylpyridine-3-carboxamide] | < 20 nM |  |  | IC50 [1, 3]: < 20 nM |
| [2H]C([2H])([2H])[C@@H](NC(=O)c1cc(-c2ccn3nc(N)nc3c2)cnc1OC)c1cccc(OC(F)(F)F)c1 [Example 346, (R)-5-(2-amino-[1,2,4]triazolo[1,5-a]pyridin-7-yl)-2-methoxy-N-(1-(3-(trifluoromethoxy)phenyl)ethyl-2,2,2-d3)nicotinamide] | < 20 nM | 20 to 200 nM |  |  |
| COc1nnc(-c2ccn3nc(N)nc3c2)cc1C(=O)NCc1cc(OC(F)(F)F)ccc1F [Example 386, 6-(2-amino-[1,2,4]triazolo[1,5-a]pyridin-7-yl)-N-(2-fluoro-5-(trifluoromethoxy)benzyl)-3-methoxypyridazine-4-carboxamide] |  |  | 20 to 200 nM | IC50 [1, 6]: > 200 nM |
| COc1ncc(-c2ccn3nc(N)nc3c2)cc1C(=O)NCc1cccc(F)c1CN1CCOCC1 [Example 365, 5-(2-amino-[1,2,4]triazolo[1,5-a]pyridin-7-yl)-N-(3-fluoro-2-(morpholinomethyl)benzyl)-2-methoxynicotinamide] |  |  | 20 to 200 nM | IC50 [1, 6]: > 200 nM |
| Cc1ncc(-c2ccn3nc(N)nc3c2)cc1C(=O)NCc1cc(F)cc(F)c1OCC1CCCC1 [Example 232] | < 20 nM | 20 to 200 nM |  |  |
| C[C@@H](NC(=O)c1cnc(Cl)c(-c2ccn3nc(N)nc3c2)c1)c1ccccc1OC(F)(F)F [Example 370, (R)-5-(2-amino-[1,2,4]triazolo[1,5-a]pyridin-7-yl)-6-chloro-N-(1-(2-(trifluoromethoxy)phenyl)ethyl)nicotinamide] | < 20 nM | 20 to 200 nM |  |  |
| CCc1ncc(-c2ccn3nc(N)nc3c2)cc1C(=O)NCc1cc(OC(F)(F)F)ccc1F [Example 86, 5-{2-amino-[1,2,4]triazolo[1,5-a]pyridin-7-yl}-2-ethyl-N-{[2-fluoro-5-(trifluoromethoxy)phenyl]methyl}pyridine-3-carboxamide] | < 20 nM | 20 to 200 nM |  |  |
| Cc1cnc(-c2ccn3nc(N)nc3c2)nc1C(=O)N[C@H](C)c1cc(OC(F)(F)F)ccc1F [Example 407, (R)-2-(2-amino-[1,2,4]triazolo[1,5-a]pyridin-7-yl)-N-(1-(2-fluoro-5-(trifluoromethoxy)phenyl)ethyl)-5-methylpyrimidine-4-carboxamide] |  | 20 to 200 nM | 20 to 200 nM |  |
| COc1nc(C)c(-c2ccn3nc(N)nc3c2)cc1C(=O)NCc1cc(C(F)(F)F)ccc1F [Example 197, 5-{2-amino-[1,2,4]triazolo[1,5-a]pyridin-7-yl}-N-{[2-fluoro-5-(trifluoromethyl)phenyl]methyl}-2-methoxy-6-methylpyridine-3-carboxamide] | < 20 nM | 20 to 200 nM |  |  |
| COc1ncc(-c2ccn3nc(N)nc3c2)cc1C(=O)NC1CCCC(NC(=O)OC(C)(C)C)C1 (centres unmarked) [Example 426, tert-butyl (3-(5-(2-amino-[1,2,4]triazolo[1,5-a]pyridin-7-yl)-2-methoxynicotinamido)cyclohexyl)carbamate] |  |  |  | IC50 [1, 6]: > 200 nM; IC50 ([2]; x marks IC50 class >200 nM, read-out: RIPK1 HTRF binding >200 nM): > 200 nM |
| CCc1ncc(-c2ccn3nc(N)nc3c2)cc1C(=O)NCc1ccccc1Sc1ccccc1CO [Example 61, 5-{2-Amino-[1,2,4]triazolo[1,5-a]pyridin-7-yl}-2-ethyl-N-[(2-{[2-(hydroxymethyl)phenyl]sulfanyl}phenyl)methyl]pyridine-3-carboxamide] | < 20 nM |  |  | IC50 [1, 3]: < 20 nM |
| Cc1nc(C)c(-c2ccn3nc(N)nc3c2)cc1C(=O)NCc1cccnc1OCC1CCCC1 [Example 183] |  | 20 to 200 nM | 20 to 200 nM |  |
| Cc1nc(C)c(-c2ccn3nc(N)nc3c2)cc1C(=O)NCc1ccccc1OCC1CC1 [Example 185, 5-{2-amino-[1,2,4]triazolo[1,5-a]pyridin-7-yl}-N-{[2-(cyclopropylmethoxy)phenyl]methyl}-2,6-dimethylpyridine-3-carboxamide] | < 20 nM |  |  | IC50 [1, 3]: < 20 nM |
| CCOc1ncc(-c2ccn3nc(N)nc3c2)cc1C(=O)NCCC(C)c1ccccc1 (centres unmarked) [Example 280, 5-{2-amino-[1,2,4]triazolo[1,5-a]pyridin-7-yl}-2-ethoxy-N-(3-phenylbutyl)pyridine-3-carboxamide] | < 20 nM | 20 to 200 nM |  |  |
| COc1ncc(-c2ccn3nc(N)nc3c2)cc1NC(=O)Cc1cc(OC(F)(F)F)ccc1F [Example 414, N-(5-(2-amino-[1,2,4]triazolo[1,5-a]pyridin-7-yl)-2-methoxypyridin-3-yl)-2-(2-fluoro-5-(trifluoromethoxy)phenyl)acetamide] | < 20 nM | 20 to 200 nM |  |  |
| COc1ncc(-c2ccn3nc(N)nc3c2)cc1C(=O)NCc1ccccc1SC(C)C [Example 143, 5-{2-amino-[1,2,4]triazolo[1,5-a]pyridin-7-yl}-2-methoxy-N-{[2-(propan-2-ylsulfanyl)phenyl]methyl}pyridine-3-carboxamide] | < 20 nM |  |  | IC50 [1, 3]: < 20 nM |
| Cc1ncc(-c2ccn3nc(N)nc3c2)cc1C(=O)NCc1cc(F)cc(F)c1OC1CCOC(C)C1 (centres unmarked) [Example 316, 5-(2-amino-[1,2,4]triazolo[1,5-a]pyridin-7-yl)-N-(3,5-difluoro-2-((2-methyltetrahydro-2H-pyran-4-yl)oxy)benzyl)-2-methylnicotinamide] |  |  | 20 to 200 nM | IC50 [1, 6]: > 200 nM |
| Cc1ncc(-c2ccn3nc(N)nc3c2)cc1C(=O)NCc1cc(C(F)(F)F)ccc1F [Example 226, 5-{2-amino-[1,2,4]triazolo[1,5-a]pyridin-7-yl}-N-{[2-fluoro-5-(trifluoromethyl)phenyl]methyl}-2-methylpyridine-3-carboxamide] |  | 20 to 200 nM | 20 to 200 nM |  |
| COc1ncc(-c2ccn3nc(N)nc3c2)cc1C(=O)NCc1ccccc1Sc1ccccc1CO [Example 151, 5-{2-amino-[1,2,4]triazolo[1,5-a]pyridin-7-yl}-N-[(2-{[2-(hydroxymethyl)phenyl]sulfanyl}phenyl)methyl]-2-methoxypyridine-3-carboxamide] | < 20 nM |  |  | IC50 [1, 3]: < 20 nM |
| Cc1nc(C)c(-c2ccn3nc(N)nc3c2)cc1C(=O)NCc1cccc(OC(F)(F)F)c1 [Example 189, 5-{2-amino-[1,2,4]triazolo[1,5-a]pyridin-7-yl}-2,6-dimethyl-N-{[3-(trifluoromethoxy)phenyl]methyl}pyridine-3-carboxamide] |  | 20 to 200 nM | 20 to 200 nM |  |
| CCOc1ncc(-c2ccn3nc(N)nc3c2)cc1C(=O)NCc1ccccc1OC1CCCC1 [Example 267, 5-{2-amino-[1,2,4]triazolo[1,5-a]pyridin-7-yl}-N-{[2-(cyclopentyloxy)phenyl]methyl}-2-ethoxypyridine-3-carboxamide] | < 20 nM | 20 to 200 nM |  |  |
